Reference: patent US10357525B2, “Use of a polysaccharide mixture for treating hyperglycemia” (TRINEO BIOTECHNOLOGY CO. LTD, priority 2017, dated 2019)

System: NIT-1 cells
Assay: STZ-induced apoptosis in NIT-1 cells, cell viability by MTT assay
Assay type: cell-based, mice
Settings: STZ 8 μM alone, FIG. 1
Method: Cells. Cell line used in the present study was pancreatic beta cell line NIT-1 ([…], BCRC). NIT-1 cells were cultured and maintained in Ham's F12K medium with 2 mM L-glutamine adjusted to contain 1.5 g/L sodium bicarbonate, 90%; heat-inactivated dialyzed fetal bovine serum(FBS), 10%; 100 units/mL penicillin G, 100 units/mL streptomycin (pH 7.4) and 1% non-essential amino acids(NEAA). were maintained in humidified environment comprising 5%CO2/95% air at 37° C.
NIT-1 cells were seeded into 96-well plates at a density of 1.0×10^5 cells per well and cultured in their normal growth media overnight. Next day, cells were incubated in the presence of streptozotocin (STZ) (8 μM) and the polysaccharide mixture (abbreviated as “FPA”, 100 μg/mL) of the present invention for 24 hrs, then cell viability was determined by MTT assay.
NIT-1 cells are pancreatic beta cell lines established from transgenic mice spontaneously developing beta-cell adenoma, thus, NIT-1 cells are suitable for hyperglycemia study for they are not responsive to glucose in the physiological range. […] Accordingly, the protective effect of the present polysaccharide mixture of example 1 on STZ-treated NIT-1 cells was evaluated by MTT assay. Result is illustrated in FIG. 1.

SMILES: CN(N=O)C(=O)N[C@H]1C(O)O[C@H](CO)[C@@H](O)[C@@H]1O (mixture of isomers) [STZ, streptozotocin]
- portion of NIT-1 cells died: about 60%
